# Results reported in PMC4231056, “Dihydroflavonol 4-Reductase Genes Encode Enzymes with Contrasting Substrate Specificity and Show Divergent Gene Expression Profiles in Fragaria Species” (PLoS ONE, 2014).
# Substitutions are numbered along the chain they refer to.
# T1: DFR2s (recombinant, F. vesca) (Fragaria vesca, UniProt A0A0A0PVL5)
# T1 construct: gene DFR; full-length ORF, 349 residues; expressed in yeast from pYES vector; not purified; result stated for all clones together
# T1 sequence (A0A0A0PVL5 1-349): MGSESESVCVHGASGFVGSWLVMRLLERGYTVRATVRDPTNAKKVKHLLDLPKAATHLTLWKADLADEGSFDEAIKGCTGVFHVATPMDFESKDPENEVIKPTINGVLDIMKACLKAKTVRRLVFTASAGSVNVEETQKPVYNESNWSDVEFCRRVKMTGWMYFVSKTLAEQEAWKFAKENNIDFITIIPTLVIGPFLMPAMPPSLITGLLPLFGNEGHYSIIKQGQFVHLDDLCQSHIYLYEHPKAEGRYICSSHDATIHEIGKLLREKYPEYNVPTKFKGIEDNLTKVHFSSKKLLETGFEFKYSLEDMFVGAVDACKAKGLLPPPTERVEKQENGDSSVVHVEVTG
# T2: DFR1s (recombinant, F. vesca) (Fragaria vesca, UniProt A0A0A0PTI9)
# T2 construct: gene DFR; full-length ORF, 333 residues; expressed in yeast from pYES vector; not purified; result stated for all clones together
# T2 sequence (A0A0A0PTI9 1-333): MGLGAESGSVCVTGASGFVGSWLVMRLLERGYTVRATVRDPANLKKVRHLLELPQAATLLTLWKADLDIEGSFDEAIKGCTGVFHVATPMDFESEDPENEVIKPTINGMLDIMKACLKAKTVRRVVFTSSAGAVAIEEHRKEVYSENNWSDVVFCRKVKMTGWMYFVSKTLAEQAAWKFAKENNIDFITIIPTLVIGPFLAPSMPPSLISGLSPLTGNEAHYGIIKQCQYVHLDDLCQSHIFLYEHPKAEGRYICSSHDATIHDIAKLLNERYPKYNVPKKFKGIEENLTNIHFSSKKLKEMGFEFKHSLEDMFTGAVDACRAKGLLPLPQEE
# B1: DFR1 (recombinant, KC894048) (Fragaria x ananassa) (protein)
# chain: MGLGAESGSVCVTGASGFVGSWLVMRLLEHGYTVRATVRDPANLKKVRHLLELPQAATRLTLWKADLDVEGSFDEAIKGCTGVFHVATPMDFESEDPENEVIKPTINGMLDIMKACLKAKTVRRVVFTSSAGAVAIEEHRKEVYSENNWSDVVFCRKVKMTGWMYFVSKTLAEQAAWKFAKENNIDFITIIPTLVIGPFLAPSMPPSLISGLSPLTGNEAHYGIIKQCQYVHLDDLCQSHIFLYEHPKAEGRYICSSHDATIHDIAKLLNEKYPKYNVPKKFKGIEENLTNIHFSSKKLKEMGFEFKHSLEDMFTGAVDACREKGLLPLPQEEETEKRRAG
# notes: full-length ORF, 341 residues; expressed in yeast INVSc1 from pYES2.1/V5-His-TOPO; reverse primer starts with the stop codon; cell protein preparation, not purified
# B2: DFR2 (recombinant, KC894055) (Fragaria x ananassa) (protein)
# chain: T1 sequence (A0A0A0PVL5 1-349) with H11T, T79S, L211S, G264A, N337A, S341G
# notes: full-length ORF, 349 residues; expressed in yeast INVSc1 from pYES2.1/V5-His-TOPO; reverse primer holds the stop codon; cell protein preparation, not purified
# Tests used:
# [1] = molecular target: T1, DFR2s (recombinant, F. vesca); assay: radiolabelled turnover assay, yeast protein preparation; assay type: biochemical; details: NADPH; labelled compound (14C)
# [2] = molecular target: T2, DFR1s (recombinant, F. vesca); assay: as above; assay type: biochemical; details: NADPH; labelled compound (14C)
# [3] = substrate: O=C1c2c(O)cc(O)cc2O[C@H](c2ccc(O)cc2)[C@H]1O; assay: radiolabelled TLC assay, Lineweaver-Burk, yeast protein preparation; assay type: biochemical, Fragaria x ananassa; details: NADPH; optimised conditions (pH optimum 6.00); labelled compound (14C); K cat is per kg protein, a specific rate
# Excerpt: radiolabelled TLC assay, Lineweaver-Burk, yeast protein preparation on DFR1 (recombinant, KC894048)
# [4] = substrate: O=C1c2c(O)cc(O)cc2O[C@H](c2ccc(O)c(O)c2)[C@H]1O; assay: as above; assay type: biochemical, Fragaria x ananassa; details: NADPH; optimised conditions (pH optimum 6.25); labelled compound (14C); K cat is per kg protein, a specific rate
# Excerpt: (§1) radiolabelled TLC assay, Lineweaver-Burk, yeast protein preparation on DFR2 (recombinant, KC894055)
# [5] = substrate: O=C1c2c(O)cc(O)cc2O[C@H](c2cc(O)c(O)c(O)c2)[C@H]1O; assay: as above; assay type: biochemical, Fragaria x ananassa; details: NADPH; optimised conditions (pH optimum 5.75); labelled compound (14C); K cat is per kg protein, a specific rate
# Excerpt: as §1
molecule,measurement,setting,value
O=C1c2c(O)cc(O)cc2O[C@H](c2ccc(O)c(O)c2)[C@H]1O [DHQ],"radiolabelled turnover assay, yeast protein preparation",[1],The recombinant DFR2s converted DHQ and DHM to leucocyanidin and leucodelphinidin
O=C1c2c(O)cc(O)cc2O[C@H](c2ccc(O)cc2)[C@H]1O [DHK],"radiolabelled turnover assay, yeast protein preparation",[2],"Recombinant DFR1 s, in contrast, were selective for DHK"
O=C1c2c(O)cc(O)cc2O[C@H](c2cc(O)c(O)c(O)c2)[C@H]1O [DHM],"radiolabelled turnover assay, yeast protein preparation",[1],The recombinant DFR2s converted DHQ and DHM to leucocyanidin and leucodelphinidin
B1,Km,[3],0.40 µM
B2,Km,[4],0.40 µM
same,Km,[5],2.3 µM
